Experimental data reported in paper PMC8305236, “New Broth Macrodilution Volatilization Method for Antibacterial Susceptibility Testing of Volatile Agents and Evaluation of Their Toxicity Using Modified MTT Assay In Vitro” (Molecules, 2021).
Values after ≈ are worked out from the molar mass of the structure shown. Read-outs that look alike come from different tables or passages of the source.

Legend:
[1] = tested on: Haemophilus influenzae ATCC 49247; assay: broth macrodilution volatilization method (liquid and vapor phase MIC); format: cell-based
Excerpt: (§1) The following four bacterial standard strains from the American Type Culture Collection (ATCC, Manassas, VA, USA) were used: Haemophilus influenzae ATCC 49247, Staphylococcus aureus ATCC 29213, Streptococcus pneumoniae ATCC 49619, and Streptococcus pyogenes ATCC 19615. Cultivation and assay media (broth/agar) were Mueller–Hinton (MH) complemented by Haemophilus Tested Medium (H. influenzae), MH (S. aureus), and Brain Heart Infusion (S. pneumoniae and S. pyogenes). The pH of the broths was equilibrated to a final value of 7.6 using Trizma base (Sigma-Aldrich, Praha, Czech Republic). […] cultivation media were purchased from Oxoid (Basingstoke, UK).
(§2) Stock cultures of bacterial strains were cultivated in broth medium at 37 °C for 24 h prior to testing. For the preparation of inoculum, the turbidity of the bacterial suspension was adjusted to 0.5 McFarland standard using a Densi-La-Meter II (Lachema, Brno, Czech Republic) to obtain a final concentration of 10^8 CFU/mL.
(§3) The antibacterial potential of volatile plant-derived compounds in the liquid and vapor phases was determined using a newly developed broth macrodilution volatilization method performed in standard 2 mL microtubes with snap caps (Eppendorf, Hamburg, Germany). Initially, each sample of compound was dissolved in DMSO at maximum concentration of 1% and diluted in the appropriate broth medium. […] The concentration of β-thujaplicin started from 1024 µg/mL and from 128 µg/mL for thymohydroquinone and thymoquninone. In the second step, 90 µL of melted agar was pipetted into rims on the caps (Figure 3a) and inoculated with 5 µL of bacterial suspension after agar solidification. Subsequently, the appropriate concentrations of each sample previously prepared in test tubes were pipetted into microtubes in a final volume of 1500 µL. Then, the microtubes were inoculated with 10 µL of bacterial suspension and closed properly (Figure 3b). Microtubes containing inoculated and non-inoculated media were prepared as growth and purity controls simultaneously. After incubation at 37 °C for 24 h, the MICs were evaluated by the visual assessment of bacterial growth after coloring metabolically active bacterial colonies with MTT dye. The respective volumes of 30 and 375 µL of MTT at a concentration of 600 µg/mL were pipetted into the caps and in the microtubes when the interface of color change from yellow to purple (relative to that of colors in control wells) was recorded in broth and agar (Figure 3c). […] The MIC values were determined as the lowest concentrations that inhibited bacterial growth compared with the compound-free control and are expressed in µg/mL. In the case of the vapor phase, the concentration was also expressed in µg/cm^3 as the weight of the volatile agent per volume unit of a microtube. […] The respective susceptibilities of H. influenzae, S. aureus, S. pneumoniae, and S. pyogenes to ampicillin, oxacillin, amoxicillin, and tetracycline were checked as positive antibiotic controls. All tests were performed as three independent experiments, each carried out in triplicate, and the results were presented as median/modal values. According to the widely accepted norm in MIC testing, the mode and median were used for the final value calculation when triplicate endpoints were within the two- and three-dilution ranges, respectively.

[2] = tested on: Streptococcus pyogenes ATCC 19615; assay: as above; format: cell-based; conditions: Streptococcus pyogenes, ATCC19615
Excerpt: as §1, §2, §3

[3] = tested on: Staphylococcus aureus ATCC 29213; assay: as above; format: cell-based
Excerpt: as §1, §2, §3

[4] = tested on: Streptococcus pneumoniae ATCC 49619; assay: as above; format: cell-based; conditions: Streptococcus pneumoniae, ATCC49619
Excerpt: as §1, §2, §3

[5] = tested on: respiratory pathogens; assay: broth macrodilution volatilization method, all four bacteria together; format: cell-based; conditions: mean value of minimal inhibitory concentrations in broth medium
Excerpt: as §1, §2
The antibacterial potential of volatile plant-derived compounds in the liquid and vapor phases was determined using a newly developed broth macrodilution volatilization method performed in standard 2 mL microtubes with snap caps (Eppendorf, Hamburg, Germany). Initially, each sample of compound was dissolved in DMSO at maximum concentration of 1% and diluted in the appropriate broth medium. […] After incubation at 37 °C for 24 h, the MICs were evaluated by the visual assessment of bacterial growth after coloring metabolically active bacterial colonies with MTT dye. The respective volumes of 30 and 375 µL of MTT at a concentration of 600 µg/mL were pipetted into the caps and in the microtubes when the interface of color change from yellow to purple (relative to that of colors in control wells) was recorded in broth and agar (Figure 3c). […] The MIC values were determined as the lowest concentrations that inhibited bacterial growth compared with the compound-free control and are expressed in µg/mL. […]

[6] = modified MTT cytotoxicity assay; conditions: human, MRC-5 normal lung fibroblast cells
Experimental: (§4) Lung fibroblast cell line MRC-5, obtained from ATCC, was propagated in Eagle’s Minimum Essential Medium (EMEM) supplemented with 10% fetal bovine serum (FBS), 2 mM glutamine, 10 µL/mL non-essential amino acids, and 1% penicillin–streptomycin solution (10,000 units/mL of penicillin and 10 mg/mL of streptomycin); all these components were purchased from Sigma-Aldrich. The cells were pre-incubated in 96-well microtiter plates at a density of 2.5 × 10^3 cells per well for 24 h at 37 °C in a humidified incubator in an atmosphere of 5% CO2 in air.
(§5) A modified method based on the metabolization of MTT to blue formazan by mitochondrial dehydrogenases in living lung cells previously described by Mosmann was used. The lung fibroblast cells were treated for 72 h with the tested compounds dissolved in DMSO at a maximum concentration of 1% and diluted in the EMEM medium supplemented with 10% FBS. Twelve two-fold serially diluted concentrations of these agents ranging from 512 to 0.25 µg/mL were prepared. The microtiter plates were covered with EVA capmats^TM at 37 °C in a humidified atmosphere of 5% CO2 in air and cultivated for 72 h. Thereafter, MTT reagent (1 mg/mL) in EMEM solution was added to each well and the plates were incubated for an additional 2 h at 37 °C in a humidified atmosphere of 5% CO2 in air. The media were removed, and the intracellular formazan product was dissolved in 100 µL of DMSO. […] The absorbance was measured at 555 nm using a Tecan Infinite M200 spectrometer (Tecan Group, Mannedorf, Switzerland), and the viability was calculated in comparison to that of the untreated control. Three independent experiments (two replicates each) were performed for each test. […] Furthermore, IC80 was calculated as equivalent to the MIC endpoint for comparison of microbiological and toxicological data. Therapeutic indices (TIs) were defined as the ratio of x¯ -IC80 and x¯ -MIC values with the aim of determining the amount of effective antibacterial agents with the quantity causing toxicity.

[7] = tested on: normal lung fibroblast cells MRC-5; assay: modified MTT cytotoxicity assay; conditions: for IC50: Homo sapiens, MRC5, 72 h, read-out: IC50 ± SD; for level of cytotoxic effect (WHO classification): classified by IC50 in lung fibroblast cells; for TI: therapeutic index, TI = IC80/x¯ -MIC
Experimental: as §4, §5

[8] = tested on: mouse fibroblasts; design: method as in PMID 17080016; conditions: cited from earlier work
[9] = tested on: S. aureus; conditions: cited from earlier work
[10] = tested on: healthy human lung MRC-5 cell lines; design: method as in PMID 28223069; conditions: cited from earlier work
[11] = tested on: Trichophyton mentagrophytes; design: method as in PMID 16648950; conditions: disc volatilization method; cited from earlier work
[12] = tested on: S. pneumoniae; design: method as in PMID 28223069; conditions: cited from earlier work
[13] = tested on: normal IMR-90 lung fibroblasts; design: method as in PMID 20711342; conditions: at a concentration of 32.84 µg/mL; cited from earlier work
[14] = tested on: H. influenzae; design: method as in PMID 28223069; conditions: cited from earlier work
[15] = tested on: S. aureus; design: method as in PMID 28223069; conditions: cited from earlier work
[16] = ATCC49247, liquid phase, 37 °C, 24 h, read-out: Minimal Inhibitory Concentration, Broth
[17] = liquid phase, 37 °C, 24 h, read-out: Minimal Inhibitory Concentration, Broth
[18] = ATCC29213, liquid phase, 37 °C, 24 h, read-out: Minimal Inhibitory Concentration, Broth
[19] = vapor phase, 37 °C, 24 h, read-out: Minimal Inhibitory Concentration, Agar
[20] = vapor phase, weight of volatile agent per volume unit of microtube, read-out: Minimal Inhibitory Concentration, Agar
[21] = ATCC29213, vapor phase, 37 °C, 24 h, read-out: Minimal Inhibitory Concentration, Agar
[22] = ATCC29213, vapor phase, weight of volatile agent per volume unit of microtube, read-out: Minimal Inhibitory Concentration, Agar

CC1(C)S[C@@H]2[C@H](NC(=O)[C@H](N)c3ccccc3)C(=O)N2[C@H]1C(=O)O [ampicillin, reference compound]
MIC [1, 16]: 1 µg/mL (≈ 2.86 µM)

CN(C)[C@@H]1C(O)=C(C(N)=O)C(=O)[C@@]2(O)C(O)=C3C(=O)c4c(O)cccc4[C@@](C)(O)[C@H]3C[C@@H]12 [tetracycline, reference compound]
MIC [2, 17]: 0.25 µg/mL (≈ 0.563 µM)

Cc1onc(-c2ccccc2)c1C(=O)N[C@@H]1C(=O)N2[C@@H]1SC(C)(C)[C@@H]2C(=O)O [oxacillin, reference compound]
MIC [3, 18]: 0.5 µg/mL (≈ 1.25 µM)

CC1(C)S[C@@H]2[C@H](NC(=O)[C@H](N)c3ccc(O)cc3)C(=O)N2[C@H]1C(=O)O [amoxicillin, reference compound]
MIC [4, 17]: 0.25 µg/mL (≈ 0.684 µM)

Cc1cc(O)c(C(C)C)cc1O [thymohydroquinone]
MIC ([1]; ATCC49247, 24 h, read-out: Minimal Inhibitory Concentration, Agar): 8 µg/mL (≈ 48.1 µM) | MIC ([1]; ATCC49247, 24 h, read-out: Minimal Inhibitory Concentration, Broth): 4 µg/mL (≈ 24.1 µM) | MIC ([1]; ATCC49247, read-out: Minimal Inhibitory Concentration, Agar): 5 µg/mL (≈ 30.1 µM) | MIC [2, 17]: 32 µg/mL (≈ 193 µM) | MIC [2, 19]: 32 µg/mL (≈ 193 µM) | MIC [2, 20]: 20 µg/mL (≈ 120 µM) | MIC [4, 17]: 16 µg/mL (≈ 96.3 µM) | MIC [4, 19]: 32 µg/mL (≈ 193 µM) | MIC [4, 20]: 20 µg/mL (≈ 120 µM) | MIC [3, 18]: 8 µg/mL (≈ 48.1 µM) | MIC [3, 21]: 16 µg/mL (≈ 96.3 µM) | MIC [3, 22]: 10 µg/mL (≈ 60.2 µM) | x¯ -MIC [5]: 15 µg/mL | IC80 at 72 h [6]: > 512 µg/mL | IC50 [7]: 2.64 ± 0.33 µg/mL (≈ 15.9 µM) | level of cytotoxic effect (WHO classification) [7]: moderate toxicity | TI [7]: >34.13 | cell growth inhibition ([8]; at 10 µg/mL): 21% | cell growth inhibition ([8]; at 100 µg/mL): 63% | MIC ([9]; S. aureus ATCC 25923): 400 µg/mL (≈ 2410 µM)

CC1=CC(=O)C(C(C)C)=CC1=O [thymoquinone]
IC50 [10]: 1.70 µg/mL (≈ 10.4 µM) | MIC [1, 16]: 4 µg/mL (≈ 24.4 µM) | MIC ([1]; ATCC49247, vapor phase, 37 °C, 24 h, read-out: Minimal Inhibitory Concentration, Agar): 8 µg/mL (≈ 48.7 µM) | MIC ([1]; ATCC49247, vapor phase, weight of volatile agent per volume unit of microtube, read-out: Minimal Inhibitory Concentration, Agar): 5 µg/mL (≈ 30.4 µM) | MIC [2, 17]: 32 µg/mL (≈ 195 µM) | MIC [2, 19]: 32 µg/mL (≈ 195 µM) | MIC [2, 20]: 20 µg/mL (≈ 122 µM) | MIC [4, 17]: 16 µg/mL (≈ 97.4 µM) | MIC [4, 19]: 16 µg/mL (≈ 97.4 µM) | MIC [4, 20]: 10 µg/mL (≈ 60.9 µM) | MIC [3, 18]: 8 µg/mL (≈ 48.7 µM) | MIC [3, 21]: 16 µg/mL (≈ 97.4 µM) | MIC [3, 22]: 10 µg/mL (≈ 60.9 µM) | vapor activity [11]: very potent vapor activity | x¯ -MIC [5]: 15 µg/mL | MIC, liquid phase ([12]; liquid phase): 16 µg/mL (≈ 97.4 µM) | MIC, vapor phase ([12]; vapor phase): 32 µg/mL (≈ 195 µM) | effect on viability [13]: did not alter the viability | IC80 at 72 h [6]: 15 ± 4.46 µg/mL (≈ 91.3 µM) | IC50 [7]: 1.21 ± 0.24 µg/mL (≈ 7.37 µM) | level of cytotoxic effect (WHO classification) [7]: toxic | TI [7]: 1.00 | MIC, liquid phase ([14]; liquid phase): 8 µg/mL (≈ 48.7 µM) | MIC, vapor phase ([14]; vapor phase): 8 µg/mL (≈ 48.7 µM) | MIC, liquid phase ([15]; liquid phase): 16 µg/mL (≈ 97.4 µM) | MIC, vapor phase ([15]; vapor phase): 16 µg/mL (≈ 97.4 µM) | MIC ([9]; S. aureus ATCC 29213 and ATCC 25923): 8 µg/mL (≈ 48.7 µM)

CCC1=C[C@@H]2CN(C1)Cc1c([nH]c3ccccc13)[C@@](C(=O)OC)(c1cc3c(cc1OC)N(C)[C@H]1[C@@](O)(C(=O)OC)[C@H](OC(C)=O)[C@]4(CC)C=CCN5CC[C@]31[C@@H]54)C2 [vinorelbin, reference compound]
IC80 ± SD ([7]; 80% inhibitory concentration of proliferation, 72 h, plates sealed with EVA capmat): >10 µg/mL | IC50 ± SD ([7]; half maximal inhibitory concentration of proliferation, 72 h, plates sealed with EVA capmat): 0.54 ± 0.26 µg/mL (≈ 0.693 µM)
